18 compounds from patent publication US9695192B2, “Fused heterocyclic compounds as ion channel modulators” (GILEAD SCIENCES, INC., priority 2011, dated 2017) can be followed below.

The target of test [1] is wild-type human cardiac sodium channel, hNav1.5 (Homo sapiens, UniProt Q14524). In words: Late INa screening assay (QPatch whole cell patch clamp, tefluthrin-enhanced late sodium current). It is filed as cell-based. Conditions: HEK293 hNav1.5, late INa activated with 10 μM Tefluthrin. The procedure:
The late sodium current (Late INa) and peak sodium current (Peak INa) assays are performed on an automated electrophysiology platform, QPatch 16X (Sophion Bioscience, Copenhagen, Denmark), which uses the whole cell patch clamp technique to measure currents through the cell membrane of up to 16 cells at a time. The assay uses an HEK293 (human embryonic kidney) cell line heterologously expressing the wild-type human cardiac sodium channel, hNav1.5, purchased from Millipore (Billerica, Mass.). No beta subunits were coexpressed with the Na channel alpha subunit. Cells are maintained with standard tissue culture procedures and stable channel expression is maintained with 400 μg/mL Geneticin in the culture medium. Cells isolated for use on QPatch are incubated for 5 minutes in Detachin 1X (Genlantis, San Diego, USA) at 37° C. to ensure that 80-90% of the cells are single and not part of a cell cluster. Experiments are carried out at 23-25° C.
For both the Late INa and Peak INa assays, series resistance compensation is set to 100% and series resistance and whole-cell compensation are performed automatically. Currents are digitized at 25 kHz and low-pass filtered at 12 kHz and 10 kHz for the late and peak INa assays, respectively. Currents through open sodium channels are automatically recorded and stored in the Sophion Bioscience Oracle database (Sophion Bioscience, Copenhagen, Denmark). Analysis is performed using QPatch Assay and database software and data are compiled in Excel.
Compound stocks are routinely made by the Gilead Sample Bank in plastic vials to 10 mM in dimethyl sulfoxide (DMSO). In some cases, when compounds are not soluble in DMSO, they are made in 100% ethanol. Stocks are sonicated as necessary. The extracellular solution for screening Late INa is composed of: 140 mM NaCl, 4 mM KCl, 1.8 mM CaCl2, 0.75 mM MgCl2 and 5 mM HEPES with pH adjusted to 7.4 using NaOH. The intracellular solution used to perfuse the inside of the cells for both the Late INa and Peak INa assays contains: 120 mM CsF, 20 mM CsCl, 5 mM EGTA, 5 mM HEPES and pH adjusted to 7.4 with CsOH. Compounds are diluted in extracellular solution to 1 μM in glass vials and then transferred to glass well plates before robotic addition to the cells. A 0 mM Na extracellular solution (0 Na-ECF) is used at the end of each experiment for the Late INa and Peak INa assays to measure baseline current contains: 140 mM N-methyl-D-glucamine; 4 mM KCl; 1.8 mM CaCl2; 0.75 mM MgCl2; 5 mM HEPES and pH was adjusted to 7.4 with HCl.
For the hNav1.5 Late INa assay, sodium channels are activated every 10 seconds (0.1 Hz) by depolarizing the cell membrane to −20 mV for 250 milliseconds (ms) from a holding potential of −120 mV. In response to a −20 mV voltage step, typical hNav1.5 sodium currents activate rapidly to a peak negative current and then inactivate nearly completely within 3-4 ms.
Compounds were tested to determine their activity in blocking the late sodium current. Late INa was generated by adding 10 μM Tefluthrin (pyrethroid) to the extracellular solution while recording Na currents. To confirm the block of late INa observed using the automated screening method, a second late INa enhancer (ATX-II) and the manual patch clamp method were used. ATX-II and tefluthrin occupy distinct, non-overlapping binding sites and modify Na^+ channel function differently to increase late INa. Compounds tested have been found generally to inhibit the enhanced late INa caused by either late INa enhancer. For the purposes of the screening, late INa is defined as the mean current between 225 ms and 250 ms after stepping to −20 mV to activate Na channels. After establishing the whole cell recording configuration, late INa activator is added to each well 4 times over a 16-17 minute period so that the late component of the Na current reaches a stable value. Compounds were then added (typically at 1 μM), in the presence of the late INa activator, with 3 additions over the course of 7 or 8 minutes. […]

In test [2] the target is hNav1.5 Peak INa (Homo sapiens, UniProt Q14524). The test can be described thus: Peak INa screening assay (tonic block and use-dependent block). It is filed as cell-based. The procedure:
The assay uses an HEK293 (human embryonic kidney) cell line heterologously expressing the wild-type human cardiac sodium channel, hNav1.5, purchased from Millipore (Billerica, Mass.). No beta subunits were coexpressed with the Na channel alpha subunit. Cells are maintained with standard tissue culture procedures and stable channel expression is maintained with 400 μg/mL Geneticin in the culture medium. […] Experiments are carried out at 23-25° C. […] Currents through open sodium channels are automatically recorded and stored in the Sophion Bioscience Oracle database (Sophion Bioscience, Copenhagen, Denmark). Analysis is performed using QPatch Assay and database software and data are compiled in Excel. Compound stocks are routinely made by the Gilead Sample Bank in plastic vials to 10 mM in dimethyl sulfoxide (DMSO). […] Stocks are sonicated as necessary. […] Compounds are diluted in extracellular solution to 1 μM in glass vials and then transferred to glass well plates before robotic addition to the cells. […] Good separation between the concentrations of test compound to reduce late and peak INa is beneficial to enable separation of the desired effect to reduce late INa-induced electrical and mechanical dysfunction from the undesired effect to reduce peak INa, which can lead to slowing or block of conduction of electrical excitation in the heart. It is contemplated that the compounds of Formula I avoid significant block of peak INa. […] Analysis of peak INa generally requires correction for rundown before determining the % block of peak current by the tested compound. […] Use-dependent block refers to the accumulation of block with increased frequency of channel activation. […] It is therefore expected that reduction of peak INa by compounds of this disclosure will be greater at high heart rates, such as those during tachyarrhythmias, than at normal heart rates. […] The intracellular solution used for the Peak INa assay is the same as outlined for the Late INa assay (see above). […] After establishing the whole cell recording configuration, channels were stimulated to open with low frequency stimulation (0.1 Hz) for 7 minutes so that the recording can be monitored and the extent to which the recording has stabilized can be assessed. […] Both TB and UDB were analyzed by incorporating rundown correction for the peak INa and UDB as calculated by compensating for the small use-dependent effect of the stimulation protocol on peak INa in the absence of compound.

The mark [3] stands for this setting: at 1 μM, 3 Hz stimulation, holding potential −100 mV, read-out: Peak UDB (use-dependent block of peak INa) % Inhibition.
Setting [4] is: read-out: Peak TB (tonic block of peak INa) % Inhibition.

Where two headings read alike, the source gives them in different places.

Sequence of wild-type human cardiac sodium channel, hNav1.5 (Q14524 whole entry): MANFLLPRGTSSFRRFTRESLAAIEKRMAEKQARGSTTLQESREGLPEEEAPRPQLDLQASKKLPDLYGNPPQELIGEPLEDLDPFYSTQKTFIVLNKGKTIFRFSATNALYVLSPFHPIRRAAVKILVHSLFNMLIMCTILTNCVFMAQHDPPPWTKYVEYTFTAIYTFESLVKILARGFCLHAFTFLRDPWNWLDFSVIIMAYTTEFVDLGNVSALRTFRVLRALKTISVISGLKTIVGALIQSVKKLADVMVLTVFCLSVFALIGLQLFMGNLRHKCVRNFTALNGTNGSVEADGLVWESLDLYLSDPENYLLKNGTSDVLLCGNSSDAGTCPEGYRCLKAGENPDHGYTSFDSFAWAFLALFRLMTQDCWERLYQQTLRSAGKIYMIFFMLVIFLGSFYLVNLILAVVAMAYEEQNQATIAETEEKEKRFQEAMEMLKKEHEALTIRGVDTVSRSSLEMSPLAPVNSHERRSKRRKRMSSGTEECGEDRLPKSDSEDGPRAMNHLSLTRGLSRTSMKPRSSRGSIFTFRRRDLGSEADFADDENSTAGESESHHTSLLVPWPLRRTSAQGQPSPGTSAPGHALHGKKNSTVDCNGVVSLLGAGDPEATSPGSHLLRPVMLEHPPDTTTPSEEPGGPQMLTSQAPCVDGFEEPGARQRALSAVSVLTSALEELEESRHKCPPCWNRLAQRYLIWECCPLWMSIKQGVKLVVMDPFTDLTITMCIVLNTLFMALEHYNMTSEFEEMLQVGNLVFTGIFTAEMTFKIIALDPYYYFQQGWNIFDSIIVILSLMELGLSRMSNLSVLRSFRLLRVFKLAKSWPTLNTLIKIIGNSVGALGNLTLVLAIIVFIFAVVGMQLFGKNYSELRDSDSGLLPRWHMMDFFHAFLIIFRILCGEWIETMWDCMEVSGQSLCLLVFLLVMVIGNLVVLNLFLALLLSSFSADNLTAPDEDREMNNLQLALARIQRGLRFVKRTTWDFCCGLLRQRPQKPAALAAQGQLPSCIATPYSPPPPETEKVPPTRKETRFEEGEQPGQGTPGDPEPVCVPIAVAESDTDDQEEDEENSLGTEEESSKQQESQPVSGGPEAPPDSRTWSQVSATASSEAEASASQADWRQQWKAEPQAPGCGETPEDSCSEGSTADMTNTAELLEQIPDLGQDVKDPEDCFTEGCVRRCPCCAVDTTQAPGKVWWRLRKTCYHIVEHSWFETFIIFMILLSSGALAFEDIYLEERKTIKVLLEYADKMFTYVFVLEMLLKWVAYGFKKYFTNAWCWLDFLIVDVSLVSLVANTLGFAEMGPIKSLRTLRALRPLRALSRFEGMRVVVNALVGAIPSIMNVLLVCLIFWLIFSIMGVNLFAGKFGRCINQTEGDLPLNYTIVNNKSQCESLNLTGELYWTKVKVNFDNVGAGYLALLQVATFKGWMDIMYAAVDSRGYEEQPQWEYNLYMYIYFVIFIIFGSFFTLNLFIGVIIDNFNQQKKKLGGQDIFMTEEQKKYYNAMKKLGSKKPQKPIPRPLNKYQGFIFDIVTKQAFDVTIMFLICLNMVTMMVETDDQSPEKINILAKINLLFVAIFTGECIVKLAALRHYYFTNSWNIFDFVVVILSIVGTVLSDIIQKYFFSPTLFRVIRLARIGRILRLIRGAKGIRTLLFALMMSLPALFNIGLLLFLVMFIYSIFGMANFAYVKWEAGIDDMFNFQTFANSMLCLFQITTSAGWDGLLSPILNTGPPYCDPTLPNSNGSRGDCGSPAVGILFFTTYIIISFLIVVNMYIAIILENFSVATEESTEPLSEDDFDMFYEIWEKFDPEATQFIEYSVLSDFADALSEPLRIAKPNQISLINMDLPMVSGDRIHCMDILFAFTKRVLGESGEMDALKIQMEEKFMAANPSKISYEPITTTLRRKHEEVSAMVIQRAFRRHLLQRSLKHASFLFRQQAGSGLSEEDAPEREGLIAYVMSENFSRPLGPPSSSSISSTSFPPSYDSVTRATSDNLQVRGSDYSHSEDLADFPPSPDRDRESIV
Sequence of hNav1.5 Peak INa (Q14524 whole entry): as above

As usually defined, the inhibition is the relative decrease from the control value, in per cent. With `FC(F)(F)c1ccc(-c2ccc3c(c2)C(NCC2CC2)=NCCO3)cc1` [II-11, N-(cyclopropylmethyl)-7-(4-(trifluoromethyl)phenyl)-2,3-dihydrobenzo[f][1,4]oxazepin-5-amine], the inhibition at 1 µM was 41% in test [1], 31% in test [2] (setting [3]) and 11% in test [2] (setting [4]).
As for `CN(C)[C@H]1CCN(C2=NCCOc3ccc(-c4ccc(C(F)(F)F)cc4)cc32)C1` [II-15, (S)—N,N-dimethyl-1-(7-(4-(trifluoromethyl)phenyl)-2,3-dihydrobenzo[f][1,4]oxazepin-5-yl)pyrrolidin-3-amine], the inhibition at 1 µM stood at 49% in test [1], 27% in test [2] (setting [3]) and 16% in test [2] (setting [4]).
The like results for `FC(F)(F)c1ccc(-c2ccc3c(c2)C(NCCOc2ccccn2)=NCCO3)cc1` [II-20, N-(2-(pyridin-2-yloxy)ethyl)-7-(4-(trifluoromethyl)phenyl)-2,3-dihydrobenzo[f][1,4]oxazepin-5-amine] were, in that order, 59%, 89% and 30%.
The corresponding values for `FC(F)(F)c1ccc(-c2ccc3c(c2)C(NCCOc2ccccc2)=NCCO3)cc1` [II-22, N-(2-phenoxyethyl)-7-(4-(trifluoromethyl)phenyl)-2,3-dihydrobenzo[f][1,4]oxazepin-5-amine] are 60%, 69% and 19%.
For `CC(C)(C)OC(=O)N1CC[C@H](NC2=NCCOc3ccc(-c4ccc(C(F)(F)F)cc4)cc32)C1` [II-43, (S)-tert-butyl 3-(7-(4-(trifluoromethyl)phenyl)-2,3-dihydrobenzo[f][1,4]oxazepin-5-ylamino)pyrrolidine-1-carboxylate], the inhibition at 1 µM in test [1] was found to be 46%; in test [2] (setting [3]), 31%; in test [2] (setting [4]), 12%.
With `O=C(N[C@@H]1CCN(C2=NCCOc3ccc(-c4ccc(C(F)(F)F)cc4)cc32)C1)c1ccccn1` [II-47, (R)—N-(1-(7-(4-(trifluoromethyl)phenyl)-2,3-dihydrobenzo[f][1,4]oxazepin-5-yl)pyrrolidin-3-yl)picolinamide], the inhibition at 1 µM in test [1] was determined as 18%.
The same measure, in the same setting: then `CCN(CC)[C@H]1CCN(C2=NCCOc3ccc(-c4ccc(C(F)(F)F)cc4)cc32)C1` [II-48, (S)—N,N-diethyl-1-(7-(4-(trifluoromethyl)phenyl)-2,3-dihydrobenzo[f][1,4]oxazepin-5-yl)pyrrolidin-3-amine], with 24%; and `CCN(CC)[C@@H]1CCN(C2=NCCOc3ccc(-c4ccc(C(F)(F)F)cc4)cc32)C1` [II-49, (R)—N,N-diethyl-1-(7-(4-(trifluoromethyl)phenyl)-2,3-dihydrobenzo[f][1,4]oxazepin-5-yl)pyrrolidin-3-amine], with 11%; and `CC(C)(C)OC(=O)N[C@@H]1CCN(C2=NCCOc3ccc(-c4ccc(C(F)(F)F)cc4)cc32)C1` [II-50, (R)-tert-butyl 1-(7-(4-(trifluoromethyl)phenyl)-2,3-dihydrobenzo[f][1,4]oxazepin-5-yl)pyrrolidin-3-ylcarbamate], with 22%.
For `CN(C)[C@@H]1CCN(C2=NCCOc3ccc(-c4ccc(C(F)(F)F)cc4)cc32)C1` [II-51, (R)—N,N-dimethyl-1-(7-(4-(trifluoromethyl)phenyl)-2,3-dihydrobenzo[f][1,4]oxazepin-5-yl)pyrrolidin-3-amine], the inhibition at 1 µM in test [1] is 21%.
As for `CN1CCN(C2=NCCOc3ccc(-c4ccc(C(F)(F)F)cc4)cc32)CC1` [II-52, 5-(4-methylpiperazin-1-yl)-7-(4-(trifluoromethyl)phenyl)-2,3-dihydrobenzo[f][1,4]oxazepine], the inhibition at 1 µM in test [1] is 10%.
On the same count and under the same terms, then `C[C@H]1CN(C(=O)OC(C)(C)C)CCN1C1=NCCOc2ccc(-c3ccc(C(F)(F)F)cc3)cc21` [II-53, (S)-tert-butyl 3-methyl-4-(7-(4-(trifluoromethyl)phenyl)-2,3-dihydrobenzo[f][1,4]oxazepin-5-yl)piperazine-1-carboxylate], with 2%; and `FC(F)(F)c1ccc(-c2ccc3c(c2)C(N2CCC(N4CCOCC4)C2)=NCCO3)cc1` (stereo not shown) [II-55, 5-(3-morpholinopyrrolidin-1-yl)-7-(4-(trifluoromethyl)phenyl)-2,3-dihydrobenzo[f][1,4]oxazepine], with 18%.
Consider `N[C@H]1CCN(C2=NCCOc3ccc(-c4ccc(C(F)(F)F)cc4)cc32)C1` [II-56, (S)-1-(7-(4-(trifluoromethyl)phenyl)-2,3-dihydrobenzo[f][1,4]oxazepin-5-yl)pyrrolidin-3-amine], for which the inhibition at 1 µM in test [1] was determined as 17%.
As to `CC(C)(C)OC(=O)NC1CCN(C2=NCCOc3ccc(-c4ccc(C(F)(F)F)cc4)cc32)C1` (stereo not shown) [II-57, tert-butyl 1-(7-(4-(trifluoromethyl)phenyl)-2,3-dihydrobenzo[f][1,4]oxazepin-5-yl)pyrrolidin-3-ylcarbamate], the inhibition at 1 µM in test [1] came out at 23%.
On the same count and under the same terms, then `FC(F)(F)c1ccc(-c2ccc3c(c2)C(N2CCCC2c2ccccn2)=NCCO3)cc1` (stereo not shown) [II-58, 5-(2-(pyridin-2-yl)pyrrolidin-1-yl)-7-(4-(trifluoromethyl)phenyl)-2,3-dihydrobenzo[f][1,4]oxazepine], with 18%; and `FC(F)(F)c1ccc(-c2ccc3c(c2)C(NC2CCNC2)=NCCO3)cc1` (stereo not shown) [II-59, N-(pyrrolidin-3-yl)-7-(4-(trifluoromethyl)phenyl)-2,3-dihydrobenzo[f][1,4]oxazepin-5-amine], with 8%.
The same measure, in the same setting: then `OC(CN[C@@H]1CCN(C2=NCCOc3ccc(-c4ccc(C(F)(F)F)cc4)cc32)C1)COc1cccc2ccccc12` (stereo partly drawn) [II-61, 1-(naphthalen-1-yloxy)-3-((R)-1-(7-(4-(trifluoromethyl)phenyl)-2,3-dihydrobenzo[f][1,4]oxazepin-5-yl)pyrrolidin-3-ylamino)propan-2-ol], with 12%.
